Consider 46 compounds from patent publication US8426447B2, “Spiro-tricyclic ring compounds as beta-secretase modulators and methods of use” (Amgen Inc., priority 2008, dated 2013).

Experiment [1] deals with T1, BACE1 (Homo sapiens, UniProt P56817). The experiment can be described thus: In Vitro BACE Cell-based Assay (HEK cell assay): Aβ40 in conditioned medium of cells stably expressing Amyloid Precursor Protein, sandwich ELISA. In short, it runs like this: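 First, APP-stable cells grow 24 h at 37° C., 5% CO2. Next, test compounds are added for 24 h (10 doses, 0.1% DMSO). Finally, medium Aβ40 is determined by pAb40/6E10 sandwich ELISA with Europium TRF, and IC50 is calculated.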

Experiment [2] concerns the target T1, BACE1. The experiment can be described thus: In Vitro Enzymatic BACE FRET (Fluorescence Resonance Energy Transfer) Assay. In kind it is biochemical. The method in brief:
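Cleavage of a 50 nM internally quenched peptide substrate is followed by fluorescence after a one-hour reaction in acidic acetate buffer, pH 4.2, terminated by Tris.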

[3] abbreviates: Table IV, class symbols, read-out: HEK cell assay.
Setting [4] is: Table IV, class symbols, read-out: BACE1 FRET assay.
Where [5] appears, read: HEK cells, read-out: HEK cell assay.
Where [6] appears, read: Table III, IC50's in uM ranges, read-out: HEK cell assay.
[7] abbreviates: Table III, IC50's in uM ranges, read-out: BACE1 FRET assay.
The mark [8] stands for this setting: Table II, Aβ40, 24 h incubation, read-out: HEK cell assay.
Where [9] appears, read: Table II, read-out: BACE1 FRET assay.
Setting [10] is: HEK cell-based assay, Aβ40 in conditioned medium, IC50 class symbols, read-out: HEK cell assay.
Where [11] appears, read: in vitro BACE FRET enzyme assay, IC50 class symbols, read-out: BACE1 FRET assay.

Structures are written as SMILES.

T1 sequence (P56817 46-501, species assumed): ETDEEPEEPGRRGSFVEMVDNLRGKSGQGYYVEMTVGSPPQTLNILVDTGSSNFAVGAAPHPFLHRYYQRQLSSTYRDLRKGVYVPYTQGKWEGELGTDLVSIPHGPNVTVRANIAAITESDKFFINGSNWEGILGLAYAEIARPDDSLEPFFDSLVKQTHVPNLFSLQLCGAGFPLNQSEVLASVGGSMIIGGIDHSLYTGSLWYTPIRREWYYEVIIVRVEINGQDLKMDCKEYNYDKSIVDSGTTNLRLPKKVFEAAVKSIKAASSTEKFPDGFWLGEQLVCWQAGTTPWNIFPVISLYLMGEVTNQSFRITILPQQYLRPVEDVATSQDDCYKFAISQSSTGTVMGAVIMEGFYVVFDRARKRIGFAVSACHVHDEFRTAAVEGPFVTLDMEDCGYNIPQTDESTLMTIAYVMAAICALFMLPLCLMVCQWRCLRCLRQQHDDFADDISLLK

Regarding `CC(C)(O)COc1ccc2c(c1Br)[C@]1(COC(N)=N1)c1cc(-c3cccnc3)ccc1O2` [compound 944], the IC50 in experiment [1] (read-out: HEK cell assay) and in experiment [2] (read-out: BACE1 FRET assay) was less than 0.1 µM throughout.
Take `NC1=N[C@]2(CO1)c1ccccc1Oc1ccc(-c3cncc4ccccc34)cc12` [compound 629]: the IC50 in experiment [1] (setting [3]) was greater than 5 µM; in experiment [2] (setting [4]), 1 to 5 µM.
Turning to `NC1=N[C@@]2(CO1)c1cc(-c3cccnc3)ccc1Oc1cnc(C3=CCCCC3)cc12` [compound 789], the IC50 in experiment [1] (read-out: HEK cell assay) and in experiment [2] (read-out: BACE1 FRET assay) was less than 0.1 µM throughout.
As to `NC1=N[C@@]2(CO1)c1cc(-c3cccnc3)ccc1Oc1cnc(/C=C/C3CC3)cc12` [compound 728], the IC50 in experiment [1] (read-out: HEK cell assay) and in experiment [2] (read-out: BACE1 FRET assay) was less than 0.1 µM in each case.
With `CC(C)(C)OC(=O)n1cccc1-c1ccc2c(c1)[C@@]1(COC(N)=N1)c1cccc(F)c1O2` [compound 510], the IC50 in experiment [1] (setting [5]) and in experiment [2] (read-out: BACE1 FRET assay) was 1 to 5 µM in each case.
As for `CC(=O)COc1ccc2c(c1)[C@]1(COC(N)=N1)c1cc(-c3cccnc3)cnc1O2` [compound 865], the IC50 in experiment [1] (setting [3]) and in experiment [2] (setting [4]) was 1 to 5 µM throughout.
As to `CC(C)OCCOc1ccc2c(c1)[C@]1(COC(N)=N1)c1cc(-c3cncnc3)ccc1O2` [compound 180], the IC50 in experiment [1] (setting [6]) is 0.1 to 1 µM; in experiment [2] (setting [7]), less than 0.1 µM.
With `CC(C)(C)COc1ccc2c(c1)[C@]1(COC(N)=N1)c1cc(-c3cc(Cl)ccc3F)cnc1O2` [Example 69, (5R)-3-(5-chloro-2-fluorophenyl)-7-(2,2-dimethylpropoxy)spiro[chromeno[2,3-b]pyridine-5,4′-[1,3]oxazol]-2′-amine], the IC50 in experiment [1] (setting [8]) was 1 to 5 µM; in experiment [2] (setting [9]), less than 0.1 µM.
`NC1=N[C@@]2(CO1)c1cc(-c3cccnc3F)ccc1Oc1cnc(C3=CCCCO3)cc12` [compound 371]: the IC50 in experiment [1] (HEK cell assay (uM)) and in experiment [2] (BACE1 FRET assay (uM)) was less than 0.1 µM in each case.
Take `CC(C)C[C@H]1CN(c2ccc3c(c2)[C@]2(COC(N)=N2)c2cc(-c4cccnc4)ccc2O3)CCO1` [compound 359]: the IC50 in experiment [1] (setting [10]) and in experiment [2] (setting [11]) was 0.1 to 1 µM throughout.
Regarding `NC1=N[C@]2(CO1)c1cc(C3=CCOCC3)ccc1Oc1cc(F)c(O)cc12` [compound 491], the IC50 in experiment [1] (setting [5]) was in the range of 1 to 5 µM; in experiment [2] (read-out: BACE1 FRET assay), 0.1 to 1 µM.
For `NC1=N[C@]2(CO1)c1cc(OCC3CCOC3)ccc1Oc1ccc(-c3cncnc3)cc12` (stereo partly drawn) [Example 132, (S)-2′-(pyrimidin-5-yl)-7′-((tetrahydrofuran-3-yl)methoxy)-5H-spiro[oxazole-4,9′-xanthen]-2-amine], the IC50 in experiment [1] (setting [6]) is greater than 5 µM; in experiment [2] (setting [7]), 1 to 5 µM.
As to `NC1=N[C@@]2(CO1)c1cc(-c3cncnc3)ccc1Oc1ccc(-c3cccc(O)c3)cc12` [compound 891], the IC50 in experiment [1] (setting [3]) is 0.1 to 1 µM; in experiment [2] (setting [4]), less than 0.1 µM.
Take `NC1=N[C@@]2(CO1)c1cc(-c3cncnc3)ccc1Oc1ccc(N3CC(F)(F)C3)cc12` [compound 508]: the IC50 in experiment [1] (setting [5]) and in experiment [2] (read-out: BACE1 FRET assay) was less than 0.1 µM each time.
As to `CC(C)(C)COc1ccc2c(c1)[C@@]1(COC(N)=N1)c1cc(C#N)ccc1O2` [compound 990], the IC50 in experiment [1] (read-out: HEK cell assay) was in the range of 1 to 5 µM; in experiment [2] (read-out: BACE1 FRET assay), 0.1 to 1 µM.
For `NC1=N[C@@]2(CO1)c1cc(-c3cccnc3F)ccc1Oc1ccc(C3=CCOCC3)nc12` [compound 400], the IC50 in experiment [1] (setting [10]) and in experiment [2] (setting [11]) was less than 0.1 µM throughout.
For `CC1(COc2ccc3c(c2)[C@@]2(COC(N)=N2)c2cc(-c4ccc(F)cc4)cnc2O3)COC1` [compound 775], the IC50 in experiment [1] (read-out: HEK cell assay) and in experiment [2] (read-out: BACE1 FRET assay) was less than 0.1 µM in each case.
With `CC(C)(C)COc1ccc2c(c1)[C@@]1(COC(N)=N1)c1cc(-c3cncs3)ccc1O2` [compound 781], the IC50 in experiment [1] (read-out: HEK cell assay) is 0.1 to 1 µM; in experiment [2] (read-out: BACE1 FRET assay), less than 0.1 µM.
`CN(C)C(=O)/C=C/c1ccc2c(c1)[C@]1(COC(N)=N1)c1cc(-c3cncnc3)ccc1O2` [compound 917]: the IC50 in experiment [1] (setting [3]) is 0.1 to 1 µM; in experiment [2] (setting [4]), less than 0.1 µM.
In the same order, the values of `NC1=N[C@@]2(CO1)c1ccccc1Oc1ccc(-c3cncnc3)cc12` [compound 844] are 0.1 to 1 µM and 0.1 to 1 µM.
As to `COc1ccc2c(c1)[C@@]1(COC(N)=N1)c1cc(-c3cccnc3)cnc1O2` [compound 670], the figures for the IC50 in experiment [1] (read-out: HEK cell assay) and in experiment [2] (read-out: BACE1 FRET assay) were 1 to 5 µM and 0.1 to 1 µM, respectively.
Take `COc1cnc2c(c1)[C@@]1(COC(N)=N1)c1cc(Br)ccc1O2` [compound 543]: the IC50 in experiment [1] (setting [3]) and in experiment [2] (setting [4]) was greater than 5 µM throughout.
Consider `CN(C)CC#Cc1ccc2c(c1)[C@@]1(COC(N)=N1)c1cc(OCC(C)(C)C)ccc1O2` [Example 89, (4S)-2′-(3-(dimethylamino)-1-propyn-1-yl)-7′-(2,2-dimethylpropoxy)spiro[1,3-oxazole-4,9′-xanthen]-2-amine], for which the IC50 in experiment [1] (setting [8]) and in experiment [2] (setting [9]) was 0.1 to 1 µM in each case.
`NC1=N[C@@]2(CO1)c1cc(Br)ccc1Oc1ccc(/C=C/C(=O)O)cc12` [compound 919]: the IC50 in experiment [1] (setting [3]) was greater than 5 µM; in experiment [2] (setting [4]), 1 to 5 µM.
The corresponding values for `CC(C)(C)C#Cc1ccc2c(c1)[C@]1(COC(N)=N1)c1cc(C#CC(C)(C)C)cnc1O2` [compound 898] are greater than 5 µM and 0.1 to 1 µM.
In the case of `COC(C)(C)C#Cc1ccc2c(c1)[C@@]1(COC(N)=N1)c1cc(-c3ccc(C)cc3)cnc1O2` [compound 577], the IC50 in experiment [1] (setting [3]) and in experiment [2] (setting [4]) was less than 0.1 µM each time.
In the case of `COc1ccc2c(c1)[C@]1(COC(N)=N1)c1cc(-c3cncc4ccccc34)ccc1O2` [compound 634], the IC50 fell in the range of 1 to 5 µM in experiment [1] (setting [3]) and 0.1 to 1 µM in experiment [2] (setting [4]).
Turning to `COCC(=O)Nc1ccc2c(c1)[C@@]1(COC(N)=N1)c1cc(OCC(C)(C)C)ccc1O2` [compound 375], the IC50 in experiment [1] (setting [10]) is 0.1 to 1 µM; in experiment [2] (setting [11]) it was less than 0.1 µM.
Consider `CC(C)(C)COc1ccc2c(c1)[C@]1(COC(N)=N1)c1cc(-c3cc(Cl)ccc3F)ccc1O2` [Example 75, (4S)-2′-(5-chloro-2-fluorophenyl)-7′-(2,2-dimethylpropoxy)spiro[1,3-oxazole-4,9′-xanthen]-2-amine], for which the IC50 in experiment [1] (setting [8]) was 0.1 to 1 µM; in experiment [2] (setting [9]), less than 0.1 µM.
Take `NC1=NC2(CO1)c1cc(-c3ccc(F)nc3)ccc1Oc1ccc(-c3ccc(F)nc3)cc12` [compound 196]: the IC50 in experiment [1] (setting [6]) is 0.1 to 1 µM; in experiment [2] (setting [7]), less than 0.1 µM.
For `CC(C)(C)CCc1ccc2c(c1)[C@@]1(COC(N)=N1)c1cc(-c3cccnc3)cnc1O2` [compound 161], the IC50 in experiment [1] (setting [6]) and in experiment [2] (setting [7]) was less than 0.1 µM in each case.
For `CC1(C)C[C@H](c2cc3c(cn2)Oc2ccc(-c4cccnc4F)cc2[C@@]32COC(N)=N2)CCO1` [compound 432], the IC50 in experiment [1] (setting [5]) and in experiment [2] (read-out: BACE1 FRET assay) was less than 0.1 µM in each case.
Turning to `CC(C)(C)COc1ccc2c(c1)[C@@]1(COC(N)=N1)c1ccccc1O2` [compound 665], the IC50 lay in the range of 1 to 5 µM in experiment [1] (read-out: HEK cell assay) and 0.1 to 1 µM in experiment [2] (read-out: BACE1 FRET assay).
In the case of `Cn1cc(-c2ccc3c(c2)[C@]2(COC(N)=N2)c2cc(-c4cccnc4)ccc2O3)cn1` [compound 710], the IC50 in experiment [1] (read-out: HEK cell assay) and in experiment [2] (read-out: BACE1 FRET assay) was less than 0.1 µM each time.
Turning to `COc1ccc2c(c1)[C@]1(COC(N)=N1)c1cc(-c3cccc4cccnc34)ccc1O2` [compound 590], the IC50 in experiment [1] (setting [3]) and in experiment [2] (setting [4]) was 1 to 5 µM each time.
On to `NC1=N[C@]2(CO1)c1cc(OCC3CC3(F)F)ccc1Oc1ccc(-c3cncnc3)cc12` (stereo partly drawn) [Example 62, (4S)-2′-((2,2-difluorocyclopropyl)methoxy)-7′-(5-pyrimidinyl)spiro[1,3-oxazole-4,9′-xanthen]-2-amine], for which the IC50 in experiment [1] (setting [8]) and in experiment [2] (setting [9]) was less than 0.1 µM in each case.
For the compound `NC1=N[C@@]2(CO1)c1cc(Br)ccc1Oc1ncccc12` [compound 601], the IC50 in experiment [1] (setting [3]) and in experiment [2] (setting [4]) was greater than 5 µM each time.
Turning to `NC1=N[C@@]2(CO1)c1cc(C(=O)NC3CC3)ccc1Oc1ccc(-c3ccccc3)cc12` [compound 518], the IC50 in experiment [1] (setting [5]) and in experiment [2] (read-out: BACE1 FRET assay) was less than 0.1 µM each time.
Turning to `CC(C)(C)COc1ccc2c(c1)[C@@]1(COC(N)=N1)c1cc(-c3cncc(F)c3)cnc1O2` [compound 753], the IC50 in experiment [1] (read-out: HEK cell assay) and in experiment [2] (read-out: BACE1 FRET assay) was less than 0.1 µM throughout.
As to `COC(=O)/C=C/c1ccc2c(c1)[C@@]1(COC(N)=N1)c1cc(Br)ccc1O2` [compound 950], the IC50 in experiment [1] (read-out: HEK cell assay) was greater than 5 µM; in experiment [2] (read-out: BACE1 FRET assay), 1 to 5 µM.
Consider `CC1(COc2cnc3c(c2)[C@]2(COC(N)=N2)c2cc(-c4ccccc4F)ccc2O3)COC1` [compound 458], for which the IC50 in experiment [1] (setting [5]) and in experiment [2] (read-out: BACE1 FRET assay) was less than 0.1 µM throughout.
Turning to `NC1=N[C@]2(CO1)c1cc(OC3CCC3)ccc1Oc1ccc(-c3cccnc3)cc12` [compound 195], the IC50 in experiment [1] (setting [6]) is 0.1 to 1 µM; in experiment [2] (setting [7]), less than 0.1 µM.
For the compound `NC1=N[C@@]2(CO1)c1cc(-c3ccccc3)ccc1Oc1ncc(N3C[C@@H]4C[C@H]3CO4)cc12` [compound 454], the IC50 in experiment [1] (setting [5]) and in experiment [2] (read-out: BACE1 FRET assay) was less than 0.1 µM throughout.
For `CC(C)(C)COc1ccc2c(c1)[C@]1(COC(N)=N1)c1cc(-c3cccnc3Cl)ccc1O2` [compound 913], the results for the IC50 in experiment [1] (setting [3]) and in experiment [2] (setting [4]) were 0.1 to 1 µM and less than 0.1 µM, respectively.
For `NC1=NC2(CO1)c1cc(-c3cncnc3)ccc1Oc1ccc(-c3cncnc3)cc12` [compound 137], the IC50 in experiment [1] (setting [6]) was 0.1 to 1 µM; in experiment [2] (setting [7]) it was less than 0.1 µM.
Turning to `CCCOc1cc2c(cc1F)Oc1ccc(-c3cncnc3)cc1[C@@]21COC(N)=N1` [compound 940], the IC50 in experiment [1] (read-out: HEK cell assay) and in experiment [2] (read-out: BACE1 FRET assay) was less than 0.1 µM in each case.
